Counter-ions that a name gives are not always drawn. Like-named read-outs stand apart in the source and are kept apart here.
Legend:
[1] = tested on: Toxoplasma gondii RH-2F tachyzoites; conditions: for effect on T. gondii growth in the screen: 5 μM, 72 h
[2] = tested on: mTOR; parameters: method as in library vendor description; conditions: ref library vendor description; cited from earlier work
[3] = tested on: Toxoplasma gondii RH-2F tachyzoites; assay: microbe, parasite or virus in culture; conditions: 72 h; for inhibition at 5 µM: read-out: Parasite inhibition (%) Mean ± SD
[4] = tested on: chymotrypsin-like proteolytic (β5) site of the 20S proteasome; parameters: method as in S-inhibitor; conditions: ref S-inhibitor; cited from earlier work
[5] = in vitro; conditions: human; for viability at 72 h, 5 µM: Host viability (%) Mean ± SD
[6] = tested on: mTOR; parameters: method as in S-inhibitor catalog; conditions: vendor brief description; ref S-inhibitor catalog; cited from earlier work
[7] = tested on: Aurora B; parameters: method as in S-inhibitor catalog; conditions: vendor brief description; ref S-inhibitor catalog; cited from earlier work
[8] = tested on: VEGFR-2; parameters: method as in vendor brief description; conditions: ref vendor brief description; cited from earlier work
[9] = tested on: JAK2; parameters: method as in S-inhibitor catalog; conditions: vendor brief description; ref S-inhibitor catalog; cited from earlier work
[10] = tested on: human foreskin fibroblasts (HFFs); conditions: preliminary screen of compound library; mean
[11] = preliminary screen of compound library, mean
[12] = read-out: Parasite inhibition (%) mean, preliminary screen, mean
[13] = read-out: Parasite inhibition (%) mean, preliminary screen of compound library, mean

CC(O)C(=O)O.CC(O)C(=O)O.CN1CCN(c2ccc3nc(-c4c(N)c5c(F)cccc5[nH]c4=O)[nH]c3c2)CC1 [Dovitinib Dilactic acid]
Parasite inhibition (%) mean [1, 11]: 18.2%

Cc1cc(C)c(/C=C2\C(=O)Nc3ccccc32)[nH]1 [semaxanib, reference compound]
effect on T. gondii growth in the screen [1]: no effect on T. gondii growth

Ulipristal
Parasite inhibition (%) mean [1, 11]: -0.7%

COC(=O)Nc1ccc(-c2nc(N3CCOCC3)c3cnn(C4CCN(C(=O)OC)CC4)c3n2)cc1 [WYE-354]
IC50 [2]: 5 nM
inhibition of growth at 5 µM [3, 12]: 43.5%

MLN9708
IC50 [4]: 3.4 nM
Ki [4]: 0.93 nM
Parasite inhibition (%) mean ([1]; preliminary screen, mean): 17.5%

N[C@@H]1CN(c2c(F)cc3c(=O)c(C(=O)O)cn([C@@H]4C[C@@H]4F)c3c2Cl)CC12CC2.O [Sitafloxacin hydrate]
Parasite inhibition (%) mean [1, 11]: 53.1%

CO[C@H]1C[C@H]2CC[C@@H](C)[C@@](O)(O2)C(=O)C(=O)N2CCCC[C@H]2C(=O)O[C@H]([C@H](C)C[C@@H]2CC[C@H](OP(C)(C)=O)[C@H](OC)C2)CC(=O)[C@H](C)/C=C(\C)[C@@H](O)[C@@H](OC)C(=O)[C@H](C)C[C@H](C)/C=C/C=C/C=C/1C [Deforolimus (Ridaforolimus)]
IC50 [2]: 0.2 nM
inhibition of growth at 5 µM [3, 12]: 36.8%

COC(=O)N[C@H](C(=O)N[C@@H](Cc1ccccc1)[C@@H](O)CN(Cc1ccc(-c2ccccn2)cc1)NC(=O)[C@@H](NC(=O)OC)C(C)(C)C)C(C)(C)C [Atazanavir, reference compound]
inhibition at 5 µM [3]: 93.6 ± 2.1%
effect on T. gondii growth in the screen [1]: significantly inhibited T. gondii growth
viability at 72 h, 5 µM [5]: 90.7 ± 2.8%

CS(=O)(=O)N1CCc2c(-c3cnc(N)nc3)nc(N3CCOCC3)nc21 [CH5132799]
inhibition of growth at 5 µM [3, 13]: 48.9%
IC50 [6]: 1600 nM

Cl.N=C(N)N [Guanidine HCl]
Parasite inhibition (%) mean [1, 11]: -3.4%

N#CC(=C(/N)Sc1ccccc1N)/C(C#N)=C(/N)Sc1ccccc1N [U0126, reference compound]
effect on T. gondii growth in the screen [1]: no effect on T. gondii growth

Biapenem
Parasite inhibition (%) mean [1, 11]: 5.8%

CNC(=O)Nc1ccc(-c2nc(N3CC4CCC(C3)O4)c3cnn(C4CCC5(CC4)OCCO5)c3n2)cc1 [WYE-125132]
inhibition of growth at 5 µM [3, 13]: 44.4%
IC50 [6]: 0.19 nM

CNC(=O)CN(CCN(CCN(CC(=O)[O-])CC(=O)NC)CC(=O)[O-])CC(=O)[O-].O.[Gd+3] [Gadodiamide (Omniscan)]
Parasite inhibition (%) mean [1, 11]: -0.2%

CC1(C)CCC(CN2CCN(c3ccc(C(=O)NS(=O)(=O)c4ccc(NCC5CCOCC5)c([N+](=O)[O-])c4)c(Oc4cnc5[nH]ccc5c4)c3)CC2)=C(c2ccc(Cl)cc2)C1 [ABT-199 (GDC-0199 )]
inhibition of growth at 5 µM [3, 13]: 70.8%
viability at 72 h ([5]; Host viability (%) mean): 25.4%

CCS(=O)(=O)c1cccc(-c2cc(C(=O)NC3CCN(C)CC3)c(C)c3[nH]c4ncc(C)cc4c23)c1 [TAK-901]
IC50 [7]: 15 nM
inhibition of growth at 5 µM [3, 13]: 77.8%
viability at 72 h ([5]; Host viability (%) mean): 52.7%

Cc1cc(Nc2cc(N3CCN(C)CC3)nc(Sc3ccc(NC(=O)C4CC4)cc3)n2)n[nH]1 [VX-680 (MK-0457, Tozasertib)]
inhibition of growth at 5 µM [3, 12]: 70.7%
viability at 72 h ([5]; Host viability (%) mean): 34.7%

CNC(=O)c1ccc(-c2cnc3ncc(Cc4ccc5ncccc5c4)n3n2)cc1F [INCB28060]
inhibition of growth at 5 µM [3, 13]: 89.8%
viability [5]: 46.3%

Oc1cc(O)c(Cl)cn1 [Gimeracil]
inhibition of growth at 5 µM [3, 12]: 70.8%
viability at 72 h ([5]; Host viability (%) mean): 75.6%

CC[C@]12C=CCN3CCC4(c5cc([C@@]6(C(=O)OC)C[C@H]7C[C@@H](C(C)(F)F)CN(Cc8c6[nH]c6ccccc86)C7)c(OC)cc5N(C)[C@H]4[C@@](O)(C(=O)OC)[C@@H]1OC(C)=O)C32 (stereo in doubt) [Vinflunine Tartrate]
inhibition of growth at 5 µM [3, 12]: 83.2%
viability [5]: 60.8%

O=S(=O)(F)Cc1ccccc1 [PMSF (Phenylmethylsulfonyl Fluoride)]
Parasite inhibition (%) mean [1, 11]: 0.8%

[I-].[K+] [Potassium iodide]
Parasite inhibition (%) mean [1, 11]: 10.2%

CN1CCN(C2CCN(C(=O)Nc3cc(Oc4ccc(NC(=O)C5(C(=O)Nc6ccc(F)cc6)CC5)c(F)c4)ccn3)CC2)CC1 [Golvatinib (E7050)]
inhibition of growth at 5 µM [3, 13]: 76.8%
IC50 [8]: 16 nM
viability at 72 h ([5]; Host viability (%) mean): 78.3%

Nc1ccccc1NC(=O)c1ccc(CNC(=O)OCc2cccnc2)cc1 [Entinostat (MS-275, SNDX-275)]
inhibition of growth at 5 µM [3, 12]: 75.7%
viability at 72 h ([5]; Host viability (%) mean): 81.6%

C[C@]1(O)C[C@@H](c2nc(-c3ccc4ccc(-c5ccccc5)nc4c3)c3c(N)nccn32)C1 [Linsitinib (OSI-906)]
inhibition of growth at 5 µM [3, 12]: 78.8%
viability at 72 h ([5]; Host viability (%) mean): 72.2%

CN(C)Cc1c(C(=O)NCCOc2ccc(C(=O)NO)cc2)oc2ccccc12 [PCI-24781]
inhibition of growth at 5 µM [3, 12]: 82.7%
viability at 72 h ([5]; Host viability (%) mean): 33.8%

CO[C@H]1C[C@H]2CC[C@@H](C)[C@@](O)(O2)C(=O)C(=O)N2CCCC[C@H]2C(=O)O[C@H]([C@H](C)C[C@@H]2CC[C@H](OC(=O)C(C)(CO)CO)[C@H](OC)C2)CC(=O)[C@H](C)/C=C(\C)[C@@H](O)[C@@H](OC)C(=O)[C@H](C)C[C@H](C)/C=C/C=C/C=C/1C [Temsirolimus (Torisel)]
IC50 [2]: 1760 nM
inhibition of growth at 5 µM [3, 12]: 22.4%

Nc1ccccc1NC(=O)c1ccc(CNC(=O)OCc2cccnc2)cc1 [Entinostat, reference compound]
inhibition at 5 µM [3]: 75.7 ± 2.2%
viability at 72 h, 5 µM [5]: 81.6 ± 1.5%

Cc1c(CN2CCN(C(=O)[C@H](C)O)CC2)sc2c(N3CCOCC3)nc(-c3cnc(N)nc3)nc12 [GDC-0980 (RG7422)]
inhibition of growth at 5 µM [3, 13]: 33.7%
Ki [6]: 17 nM

Cc1cccc(C(C)c2cnc[nH]2)c1C (stereo not shown) [Medetomidine HCl, reference compound]
inhibition at 5 µM [3]: 70.8 ± 1.5%
viability [5]: 90.5%
viability at 5 µM [5]: 90.5 ± 4.4%

CCN1CCN(c2cc(-c3ccc(F)cc3)c3c(n2)CCCCCC3)CC1 [Blonanserin, reference compound]
inhibition at 5 µM [3]: 82.1 ± 3.1%
viability at 72 h, 5 µM [5]: 88.3 ± 5.9%

CC(C)C[C@@H](C(=O)N[C@H](C(=O)OC1CCCC1)c1ccccc1)[C@H](O)C(=O)NO [CHR2797, reference compound]
inhibition at 5 µM [3]: 85.6 ± 1.8%
viability at 72 h, 5 µM [5]: 88.8 ± 6.7%

c1cncc(CN2CCC(n3ncc4c(N5CCOCC5)nc(-c5ccc6[nH]ccc6c5)nc43)CC2)c1 [WAY-600]
inhibition of growth at 5 µM [3, 13]: 35.5%
IC50 [6]: 9 nM

CN[C@H](CC(C)C)C(=O)N[C@H]1C(=O)N[C@@H](CC(N)=O)C(=O)N[C@H]2C(=O)N[C@H]3C(=O)N[C@@H](C(=O)N[C@H](C(=O)O)c4cc(O)cc(O)c4-c4cc3ccc4O)[C@H](O)c3ccc(c(Cl)c3)Oc3cc2cc(c3O[C@H]2O[C@H](CO)[C@@H](O)[C@H](O)[C@H]2O[C@H]2C[C@@](C)(N)[C@H](O)[C@H](C)O2)Oc2ccc(cc2Cl)[C@H]1O.Cl [Vancomycin HCl (Vancocin)]
Parasite inhibition (%) mean [1]: 0.8%

C=C[C@H]1C[N@@]2CC[C@H]1C[C@H]2[C@H](O)c1ccnc2ccc(OC)cc12 [Quinine hydrochloride dihydrate]
inhibition of growth at 5 µM [3, 13]: 78.9%
viability [5]: 79.4%

CC(C)C[C@H](NC(=O)CNC(=O)c1cc(Cl)ccc1Cl)B(O)O [MLN2238]
IC50 [4]: 3.4 nM
Ki [4]: 0.93 nM
inhibition of growth at 5 µM [3, 12]: 13.3%

CN1CCN(c2cccc(Nc3nc4c(-c5ccc(S(C)(=O)=O)cc5)cccn4n3)c2)CC1 [CEP33779]
IC50 [9]: 1.8 nM
inhibition of growth at 5 µM [3, 13]: 7.8%

COc1cc2c(Nc3ccc(NC(=O)c4ccccc4)cc3)ncnc2cc1OCCCN1CCOCC1 [ZM-447439]
inhibition of growth at 5 µM [3, 12]: 70.2%
viability at 72 h ([5]; Host viability (%) mean): 31.2%

COc1cc(Nc2ncc(F)c(Nc3ccc4c(n3)N(COP(=O)(O)O)C(=O)C(C)(C)O4)n2)cc(OC)c1OC [R935788]
Parasite inhibition (%) mean ([1]; preliminary screen, mean): 28.5%

COc1cc2c(Nc3ccc(Br)cc3F)ncnc2cc1OCC1CCN(C)CC1 [Vandetanib (Zactima)]
inhibition of growth at 5 µM [3, 12]: 80.2%
viability at 72 h [5]: 79.5%

AT101
Host viability (%) mean [10]: 68.8%
Parasite inhibition (%) mean [1]: 70.4%

COC(=O)Nc1ccc(-c2nc(N3CCOCC3)c3cnn(C4CCN(Cc5cccnc5)CC4)c3n2)cc1 [WYE-687]
inhibition of growth at 5 µM [3, 13]: 28.7%
IC50 [6]: 7 nM

CN(C)c1ccc(-c2nc3c(N4CCN(CC(=O)Nc5nccs5)CC4)c(Cl)cnc3[nH]2)cc1 [CCT129202]
inhibition of growth at 5 µM [3, 12]: 85.6%
viability at 72 h ([5]; Host viability (%) mean): 42.6%

CNC1CCCN(c2c(F)cc3c(=O)c(C(=O)O)cn(C4CC4)c3c2OC)C1 (stereo not shown) [Balofloxacin]
inhibition of growth at 5 µM [3, 13]: 71.8%
viability at 72 h ([5]; Host viability (%) mean): 76.4%

Cl.NC(=O)c1cnc(N[C@@H]2CCCC[C@@H]2N)nc1Nc1cccc(-n2nccn2)c1 [PRT062607 HCl]
Parasite inhibition (%) mean [1, 11]: 17.8%

CC(C)Cc1ccc(C(C)C(=O)O)cc1.NCCCC[C@H](N)C(=O)O (stereo not shown) [Ibuprofen Lysine (NeoProfen)]
Parasite inhibition (%) mean ([1]; preliminary screen, mean): -1.6%

Cc1cc(Nc2nc(N[C@@H](C)c3ccc(F)cc3)c(C#N)cc2F)[nH]n1 [AZ 960]
IC50 [9]: < 3 nM
Ki [9]: 0.45 nM
inhibition of growth at 5 µM [3, 12]: -2.1%

Cc1[nH]c(/C=C2\C(=O)Nc3ccc(S(=O)(=O)Cc4c(Cl)cccc4Cl)cc32)c(C)c1C(=O)N1CCC[C@@H]1CN1CCCC1 [PHA-665752, reference compound]
inhibition at 5 µM [3]: 92.3 ± 3.1%
effect on T. gondii growth in the screen [1]: significantly inhibited T. gondii growth
viability at 72 h, 5 µM [5]: 80.5 ± 1.3%
viability at 72 h ([5]; Host viability (%) mean): 80.5%
